Results on one compound are retold here after patent US9663449B2, “Lipid containing formulations” (ARBUTUS BIOPHARMA CORPORATION, priority 2006, dated 2017).

This assay deals with Factor VII. In words: In vivo Factor VII silencing assay, serum Factor VII by chromogenic kit. Further details: species or system C57BL/6 mice. The settings on record: 2 mg/kg siRNA; FIG. 1; suggested, 5 tail and/or 6 tail, most abundant species in ND98 6:1 preparation. How it is done:
Applicants have discovered that certain polyamine lipid moieties provide desirable properties for administration of nucleic acids, such as siRNA. For example, in some embodiments, a lipid moiety is complexed with a Factor VII-targeting siRNA and administered to an animal such as a mouse. The level of secreted serum Factor VII is then quantified (24 h post administration), where the degree of Factor VII silencing indicates the degree of in vivo siRNA delivery. Accordingly, lipids providing enhanced in vivo delivery of a nucleic acid such as siRNA are preferred. In particular, Applicants have discovered polyamines having substitutions described herein can have desirable properties for delivering siRNA, such as bioavailability, biodegradability, and tolerability.
C57BL/6 mice received tail vein injections of saline or various lipid formulations. Lipid-formulated siRNAs are administered at varying doses in an injection volume of 10 μL/g animal body weight. Twenty-four hours after administration, serum samples are collected by retroorbital bleed. Serum Factor VII concentrations are determined using a chromogenic diagnostic kit (Coaset Factor VII Assay Kit, DiaPharma) according to manufacturer protocols.
The effectiveness of lipid compositions can be tested by determining the relative ability of a lipid to deliver an siRNA moiety to a target. […]

In the case of `CCCCCCCCCCCCNC(=O)CCN(CCC(=O)NCCCCCCCCCCCC)CCN(CCC(=O)NCCCCCCCCCCCC)CCN(CCC(=O)NCCCCCCCCCCCC)CCN(CCC(=O)NCCCCCCCCCCCC)CCC(=O)NCCCCCCCCCCCC` [Compound 5], the “FVII silencing, active lipid species” value was “active species”.
